In brackets after ≈: the same amount, converted by molar mass.
Key:
NCI-H1975 [1] = experiment: Induction of apoptosis in human NCI-H1975 cells assessed as late apoptotic cells at 20 uM after 48 hrs by annexin V/FITC-propidium iodide staining-based flow cytometric method ( Rvb = 10.4%); assay type: functional
NCI-H1975 [2] = experiment: Induction of apoptosis in human NCI-H1975 cells assessed as necrotic cells at 20 uM after 48 hrs by annexin V/FITC-propidium iodide staining-based flow cytometric method ( Rvb = 1.01%); assay type: functional
Mus musculus [3] = experiment: Toxicity in Balb/c mouse implanted with mouse C26 cells assessed as change in body weight at 100 mg/kg, po qd treated for 10 days and measured every 2 days (RVB = 16.4%); assay type: organism-based; settings: in vivo
NCI-H1975 [4] = experiment: Cell cycle arrest in human NCI-H1975 cells assessed as reduction in accumulation at G2/M phase after 24 hrs by propidium iodide staining-based flow cytometric analysis; assay type: functional
[5] = Apparent aqueous solubility of the compound by HPLC analysis; assay type: physicochemical; settings: aqueous solution
NCI-H1975 [6] = experiment: Induction of apoptosis in human NCI-H1975 cells assessed as early apoptotic cells at 10 uM after 48 hrs by annexin V/FITC-propidium iodide staining-based flow cytometric method ( Rvb = 6.09%); assay type: functional
NCI-H1650 = experiment: Antiproliferative activity against human NCI-H1650 cells after 72 hrs by MTT assay; assay type: functional, cell-based; settings: NCI-H1650, 72 h
NCI-H1975 [7] = experiment: Cell cycle arrest in human NCI-H1975 cells assessed as accumulation at G0/G1 phase at 20 uM after 24 hrs by propidium iodide staining-based flow cytometric analysis (reference value: 56.11%); assay type: functional
NCI-H1975 [8] = experiment: Induction of apoptosis in human NCI-H1975 cells assessed as necrotic cells at 5 uM after 48 hrs by annexin V/FITC-propidium iodide staining-based flow cytometric method ( Rvb = 1.01%); assay type: functional
NCI-H1975 [9] = experiment: Antiproliferative activity against human NCI-H1975 cells after 72 hrs by MTT assay; assay type: functional, cell-based; settings: NCI-H1975, 72 h
NCI-H1975 [10] = experiment: Induction of apoptosis in human NCI-H1975 cells assessed as early apoptotic cells at 5 uM after 48 hrs by annexin V/FITC-propidium iodide staining-based flow cytometric method ( Rvb = 6.09%); assay type: functional
NCI-H1975 [11] = experiment: Induction of apoptosis in human NCI-H1975 cells assessed as late apoptotic cells at 5 uM after 48 hrs by annexin V/FITC-propidium iodide staining-based flow cytometric method ( Rvb = 10.4%); assay type: functional
NCI-H460 [12] = experiment: Potency index, ratio of IC50 for honokiol to IC50 for test compound for antiproliferative activity against human H460 cells after 72 hrs by MTT assay; assay type: functional
NCI-H1975 [13] = experiment: Cell cycle arrest in human NCI-H1975 cells assessed as increase in accumulation at G0/G1 phase after 24 hrs by propidium iodide staining-based flow cytometric analysis; assay type: functional
HUVEC = experiment: Antimigratory activity against HUVEC after 24 to 48 hrs by phase contrast/fluorescence microscopic analysis; assay type: functional, cell-based; settings: Homo sapiens
NCI-H1975 [14] = experiment: Induction of apoptosis in human NCI-H1975 cells assessed as necrotic cells at 10 uM after 48 hrs by annexin V/FITC-propidium iodide staining-based flow cytometric method ( Rvb = 1.01%); assay type: functional
NCI-H1975 [15] = experiment: Induction of apoptosis in human NCI-H1975 cells assessed as viable cells at 20 uM after 48 hrs by annexin V/FITC-propidium iodide staining-based flow cytometric method ( Rvb = 82.5%); assay type: functional; settings: NCI-H1975, 48 h, read-out: Activity
Mus musculus [16] = experiment: Toxicity in Balb/c mouse implanted with mouse C26 cells assessed as mouse death at 100 mg/kg, po qd treated for 10 days; assay type: organism-based; settings: in vivo, 240 h
A549 = experiment: Antiproliferative activity against human A549 cells after 72 hrs by MTT assay; assay type: functional, cell-based; settings: A549, 72 h
NCI-H1975 [17] = experiment: Cell cycle arrest in human NCI-H1975 cells assessed as reduction in accumulation at S phase after 24 hrs by propidium iodide staining-based flow cytometric analysis; assay type: functional
NCI-H1975 [18] = experiment: Cell cycle arrest in human NCI-H1975 cells assessed as accumulation at G2/M phase at 5 uM after 24 hrs by propidium iodide staining-based flow cytometric analysis (reference value: 20.11%); assay type: functional
NCI-H1975 [19] = experiment: Cell cycle arrest in human NCI-H1975 cells assessed as accumulation at S phase at 5 uM after 24 hrs by propidium iodide staining-based flow cytometric analysis (reference value: 22.93%); assay type: functional
NCI-H1975 [20] = experiment: Cell cycle arrest in human NCI-H1975 cells assessed as accumulation at S phase at 10 uM after 24 hrs by propidium iodide staining-based flow cytometric analysis (reference value: 22.93%); assay type: functional
NCI-H460 [21] = experiment: Antiproliferative activity against human H460 cells after 72 hrs by MTT assay; assay type: functional, cell-based; settings: NCI-H460, 72 h
NCI-H441 = experiment: Antiproliferative activity against human H441 cells after 72 hrs by MTT assay; assay type: functional, cell-based; settings: NCI-H441, 72 h
HCC827 [22] = experiment: Antiproliferative activity against human HCC827 cells after 72 hrs by MTT assay; assay type: functional, cell-based; settings: HCC827, 72 h
NCI-H1975 [23] = experiment: Potency index, ratio of IC50 for honokiol to IC50 for test compound for antiproliferative activity against human NCI-H1975 cells after 72 hrs by MTT assay; assay type: functional
NCI-H1975 [24] = experiment: Induction of apoptosis in human NCI-H1975 cells assessed as viable cells at 10 uM after 48 hrs by annexin V/FITC-propidium iodide staining-based flow cytometric method ( Rvb = 82.5%); assay type: functional; settings: NCI-H1975, 48 h, read-out: Activity
PC-9 = experiment: Antiproliferative activity against human PC9 cells after 72 hrs by MTT assay; assay type: functional, cell-based; settings: PC-9, 72 h
HCC827 [25] = experiment: Potency index, ratio of IC50 for honokiol to IC50 for test compound for antiproliferative activity against human HCC827 cells after 72 hrs by MTT assay; assay type: functional
[26] = Antitumor activity against mouse C26 cells implanted in Balb/c mouse assessed as tumor growth inhibition at 100 mg/kg, po qd and measured every 2 days relative to control; assay type: functional; settings: 48 h, read-out: TGI
[27] = Antiproliferative activity against human SPC-A1 cells after 72 hrs by MTT assay; assay type: functional, cell-based; settings: SPCA1, 72 h
NCI-H1975 [28] = experiment: Induction of apoptosis in human NCI-H1975 cells after 48 hrs by annexin V/FITC-propidium iodide staining-based flow cytometric method; assay type: functional, cell-based
NCI-H1975 [29] = experiment: Cell cycle arrest in human NCI-H1975 cells assessed as accumulation at S phase at 20 uM after 24 hrs by propidium iodide staining-based flow cytometric analysis (reference value: 22.93%); assay type: functional
NCI-H1975 [30] = experiment: Potency index, ratio of IC50 for magnolol to IC50 for test compound for antiproliferative activity against human NCI-H1975 cells after 72 hrs by MTT assay; assay type: functional
NCI-H1975 [31] = experiment: Cell cycle arrest in human NCI-H1975 cells assessed as accumulation at G2/M phase at 10 uM after 24 hrs by propidium iodide staining-based flow cytometric analysis (reference value: 20.11%); assay type: functional
HCC827 [32] = experiment: Potency index, ratio of IC50 for magnolol to IC50 for test compound for antiproliferative activity against human HCC827 cells after 72 hrs by MTT assay; assay type: functional
NCI-H358 = experiment: Antiproliferative activity against human NCI-H358 cells after 72 hrs by MTT assay; assay type: functional, cell-based; settings: NCI-H358, 72 h
NCI-H1975 [33] = experiment: Induction of apoptosis in human NCI-H1975 cells assessed as late apoptotic cells at 10 uM after 48 hrs by annexin V/FITC-propidium iodide staining-based flow cytometric method ( Rvb = 10.4%); assay type: functional
NCI-H1975 [34] = experiment: Cell cycle arrest in human NCI-H1975 cells assessed as accumulation at G2/M phase at 20 uM after 24 hrs by propidium iodide staining-based flow cytometric analysis (reference value: 20.11%); assay type: functional
NCI-H1975 [35] = experiment: Induction of apoptosis in human NCI-H1975 cells assessed as early apoptotic cells at 20 uM after 48 hrs by annexin V/FITC-propidium iodide staining-based flow cytometric method ( Rvb = 6.09%); assay type: functional
NCI-H1975 [36] = experiment: Cell cycle arrest in human NCI-H1975 cells assessed as accumulation at G0/G1 phase at 5 uM after 24 hrs by propidium iodide staining-based flow cytometric analysis (reference value: 56.11%); assay type: functional
NCI-H1975 [37] = experiment: Induction of apoptosis in human NCI-H1975 cells assessed as viable cells at 5 uM after 48 hrs by annexin V/FITC-propidium iodide staining-based flow cytometric method ( Rvb = 82.5%); assay type: functional; settings: NCI-H1975, 48 h, read-out: Activity
NCI-H1975 [38] = experiment: Cell cycle arrest in human NCI-H1975 cells assessed as accumulation at G0/G1 phase at 10 uM after 24 hrs by propidium iodide staining-based flow cytometric analysis (reference value: 56.11%); assay type: functional
NCI-H460 [39] = experiment: Potency index, ratio of IC50 for magnolol to IC50 for test compound for antiproliferative activity against human H460 cells after 72 hrs by MTT assay; assay type: functional

C=CCc1ccc(O)c(-c2cc(CC=C)cc(CN3CCN(CCOC)CC3)c2O)c1
Activity (NCI-H1975 [1]): 51.1%
Activity (NCI-H1975 [2]): 0.9%
Activity (Mus musculus [3]): 12.4%
Activity (NCI-H1975 [4]): Dose-dependent effect
solubility [5]: 120 µg/mL (≈ 284 µM)
Activity (NCI-H1975 [6]): 8.79%
IC50 (NCI-H1650): 5.12 µM
Activity (NCI-H1975 [7]): 69.91%
Activity (NCI-H1975 [8]): 0.47%
IC50 (NCI-H1975 [9]): 7.12 µM
Activity (NCI-H1975 [10]): 6.13%
Activity (NCI-H1975 [11]): 22.8%
Ratio IC50 (NCI-H460 [12]): 4
Activity (NCI-H1975 [13]): Dose-dependent effect
Activity (HUVEC): Dose-dependent effect
Activity (NCI-H1975 [14]): 0.31%
viability at 20 µM (NCI-H1975 [15]): 22.9%
Activity (Mus musculus [16]): Non-Toxic
IC50 (A549): 7.89 µM
Activity (NCI-H1975 [17]): Dose-dependent effect
Activity (NCI-H1975 [18]): 18.05%
Activity (NCI-H1975 [19]): 17.71%
Activity (NCI-H1975 [20]): 21.85%
IC50 (NCI-H460 [21]): 5.92 µM
IC50 (NCI-H441): 10.2 µM
IC50 (HCC827 [22]): 6.8 µM
Ratio IC50 (NCI-H1975 [23]): 4
viability at 10 µM (NCI-H1975 [24]): 68.4%
IC50 (PC-9): 13.5 µM
Ratio IC50 (HCC827 [25]): 4
inhibition in vivo at 100 mg/kg [26]: 4.14%
IC50 [27]: 7.27 µM
Activity (NCI-H1975 [28]): Dose-dependent effect
Activity (NCI-H1975 [29]): 11.17%
Ratio IC50 (NCI-H1975 [30]): 8
Activity (NCI-H1975 [31]): 11.15%
Ratio IC50 (HCC827 [32]): 8
IC50 (NCI-H358): 7.49 µM
Activity (NCI-H1975 [33]): 22.5%
Activity (NCI-H1975 [34]): 16.86%
Activity (NCI-H1975 [35]): 25.1%
Activity (NCI-H1975 [36]): 61.59%
viability at 5 µM (NCI-H1975 [37]): 72.6%
Activity (NCI-H1975 [38]): 66.25%
Ratio IC50 (NCI-H460 [39]): 8
